Measured values taken from patent US20040052828A1, “Consumable product including consumable component and alpha-keto enamine derivatives” (priority 2000, published 2004).

What was measured:
Assay type in all cases: in vivo, human
trained panelists = assay: Cooling threshold in water, triangle test by trained panelists; conditions: determined in water
Procedure: Prior to sensory analysis, the purity of the synthetic taste compounds was checked by GC/MS. Determination of the cooling, as well as the aroma threshold, of the compounds was performed by trained panelists. Nasal odor thresholds (Guth, H.; Grosch, W. J. Am. Oil Chem. Soc. 1993, 70, 513-518), as well as cooling thresholds, were determined by triangle tests using tap water as the solvent. The samples were presented in order of increasing concentrations and the threshold values evaluated in three separate sessions were averaged. The values between individuals and separate sessions differed by not more than one dilution step.

[1] = Tasting of cooling compounds in Vittel mineral water
Procedure: Solutions of 10%-menthol, 10% 5-MPC and 10% MPF, respectively, in ethanol were diluted with Vittel™ mineral water. The solutions were tasted and compared with pure Vittel™ water.

mouth cavity = assay: Evaluation of cooling substances in orange juice
Procedure: Several cooling substances were evaluated in orange juice.

[2] = Cooling threshold in milk chocolate; conditions: for Cooling effect [mg/100 g chocolate]: cooling threshold in milk chocolate
Description: In an additional experiment, the cooling thresholds of 3-MPC, 5-MPC, MPF, 2(5H)-MPF and 2(5H)-DMPF have been determined in chocolate. […] The ratio for compounds of the invention is typically less than that of menthol, preferably less than 9, more preferably less than about 3. In other embodiments, the cooling threshold to odor threshold ratio is less than about 1 or less than about 0.1.

mouth = assay: Taste testing of sugar confectionery (candies)
Procedure: Sugar (100 g) was heated together with water (15 g) in a beaker on a hot plate. After the mixture became a clear solution, the sugar syrup was heated further until it became viscous due to the evaporation of water. Then 5-MPC (20 mg) and MPF (100 mg), respectively, were added. The viscous liquid was then poured into molds (3 g each) and cooled down to room temperature. The candies, which had been formed in the molds, were demolded and used for taste testing.

Application in ice cream = conditions: 20 mg/kg in ice cream
Procedure: Full-fat cream (250 g), milk (250 ml) and sugar (100 g) were mixed and stirred until the sugar was dissolved. Then the mixture was poured into an ice cream machine (Il Gelataio Super, Simac Inc., Gessate, Italy) and frozen within 30 minutes while stirring. In the same way, ice cream was prepared with 5-MPC (20 mg/kg). […] The cool refreshing impression of this ice cream persisted much longer than with the unflavored reference compound.

[3] = test system: skin surface on the inside of the right forearm; assay: Topical testing of cooling intensity on the forearm; conditions: scale 0 (no effect) to 5 (very strong)
Procedure: Topical thresholds of cooling compounds 5-MPF, 2(5H)-DMPF, 2(5H)-MPF and MPF were determined as follows: An aliquot (0.5 mL) of a solution, […], was applied to a circular area (10 cm^2) of the skin surface on the inside of the right forearm, midway between the wrist and the elbow, and were rubbed for 1 min. In parallel, an aliquot (0.5 mL) of pure tap water was applied as the blank onto the skin of the left forearm. After 1 min, the skin was dried. A panel of 10 subjects (male and female) were asked to rank the cooling intensity on a scale from 0 (no effect) to 5 (very strong). The values evaluated in three different sessions at two days were averaged. The values between individuals and separate sessions differed not more than 2 scores.

For `CC1=C(N2CCCC2)C(=O)CCC1` [3-MPCH, 3-Methyl-2-(1-pyrrolidinyl)-2-cyclohexen-1-one], the Cooling threshold (trained panelists) was 90 to 150 mg/kg.

Work on `CC1CC=C(N2CCCCC2)C1=O` (stereo not drawn) [5-MpipC, 5-Methyl-2-(1-piperidinyl)-2-cyclopenten-1-one] yielded a Cooling threshold (trained panelists) of 16 to 24 mg/kg.

In the case of `CC1CCC(C(C)C)C(O)C1` (single isomer, unassigned; (-)) [(−)-Menthol, reference compound], the Cooling threshold (trained panelists) is reported as 0.9 to 1.9 mg/kg, the “Flavor: cooling effect” value ([1]; 10 mg/L in Vittel mineral water) is reported as “Pronounced cooling effect, strong” and the cooling effect (mouth cavity; 20 mg/L in orange juice) is reported as “strong cooling effect”.

`CC1=C(N2CCCC2C(=O)O)C(=O)CC1` (stereo not drawn) [3-MProC, 3-Methyl-2-(2-carboxy-1-pyrrolidinyl)-2-cyclopentene-1-one] gave a Cooling threshold (trained panelists) of 490 to 735 mg/kg.

For `CC1CC=C(N2CCCC2)C1=O` (stereo not drawn) [5-MPC, 5-Methyl-2-(1-pyrrolidinyl)-2-cyclopenten-1-one], the Cooling threshold (trained panelists) was 4.5 to 9 mg/kg, the “Cooling effect [mg/100 g chocolate]” value [2] was 2.3-3.7 mg/100 g chocolate and the “fold higher cooling threshold than 2(5H)-MPF” value ([2]; in chocolate, compared with 2(5H)-MPF) was 8 fold. The cooling effect (mouth cavity; 200 mg/L in orange juice) was “strong cooling effect”, the “cooling effect in the mouth” value (mouth; 20 mg added to syrup of 100 g sugar) was “pronounced cooling effect” and the cooling effect (Application in ice cream) was “pronounced long lasting cooling effect”. The Cooling intensity ([3]; 0.00020 % in tap water) was 0, the Cooling intensity ([3]; 0.00039 % in tap water) was 0 and the Cooling intensity ([3]; 0.00078 % in tap water) was 0. The Cooling intensity ([3]; 0.00156 % in tap water) was 0, the Cooling intensity ([3]; 0.00313 % in tap water) was 0 and the Cooling intensity ([3]; 0.00625 % in tap water) was 0. For the same compound, the Cooling intensity ([3]; 0.0125 % in tap water) was 0, the Cooling intensity ([3]; 0.025 % in tap water) was 0 and the Cooling intensity ([3]; 0.05 % in tap water) was 0. It also gave a Cooling intensity ([3]; 0.1 % in tap water) of 0, a Cooling intensity ([3]; 0.2 % in tap water) of 1 and a Cooling intensity ([3]; 0.5 % in tap water) of 3. For the same compound, the Cooling intensity ([3]; 1.0 % in tap water) was 5.

Compound `CC1=C(N2CCCC2)C(=O)C(C)O1` (stereo not drawn) [DMPF, 2,5-Dimethyl-4-(1-pyrrolidinyl)-3(2H)-furanone] has a Cooling threshold (trained panelists) of 100 to 140 mg/kg.

`CC1=C(N2CCCCC2)C(=O)CC1` [3-MPipC, 3-Methyl-2-(1-piperidinyl)-2-cyclopenten-1-one] showed a Cooling threshold (trained panelists) of 60 to 100 mg/kg.

With `CCC1CC=C(N2CCCC2)C1=O` (stereo not drawn) [5-EPC, 5-Ethyl-2-(1-pyrrolidinyl)-2-cyclopenten-1-one] the Cooling threshold (trained panelists) was 27 to 43 mg/kg.

With `CC1=C(N2CCCC2)C(=O)CC1C` (stereo not drawn) [3,4-DMPC, 3,4-Dimethyl-2-(1-pyrrolidinyl)-2-cyclopenten-1-one] the Cooling threshold (trained panelists) was 51 to 86 mg/kg.

Compound `CC1C=C(N2CCCC2)C(=O)C1C` (stereo not drawn) [4,5-DMPC, 4,5-Dimethyl-2-(1-pyrrolidinyl)-2-cyclopenten-1-one] has a Cooling threshold (trained panelists) of 68 to 113 mg/kg.

With `CC1=C(N2CCCC2)C(=O)OC1C` (stereo not drawn) [2(5H)-DMPF, 4,5-Dimethyl-3-(1-pyrrolidinyl)-2(5H)-furanone] the Cooling threshold (trained panelists) was 2.0 to 4.0 mg/kg, the “Cooling effect [mg/100 g chocolate]” value [2] was 5.0-7.5 mg/100 g chocolate and the Cooling intensity ([3]; 0.00625 % in tap water) was 0. The Cooling intensity ([3]; 0.0125 % in tap water) was 1, the Cooling intensity ([3]; 0.025 % in tap water) was 3 and the Cooling intensity ([3]; 0.05 % in tap water) was 5. The Cooling intensity ([3]; 0.1 % in tap water) was 5, the Cooling intensity ([3]; 0.2 % in tap water) was 5 and the Cooling intensity ([3]; 0.5 % in tap water) was 5. The Cooling intensity ([3]; 1.0 % in tap water) was 5.

For `CC1=C(N2CCCC2)C(=O)OC1` [2(5H)-MPF, 4-Methyl-3-(1-pyrrolidinyl)-2(5H)-furanone], the Cooling threshold (trained panelists) was 0.02 to 0.06 mg/kg, the “Cooling effect [mg/100 g chocolate]” value [2] was 0.25-0.5 mg/100 g chocolate and the Cooling intensity ([3]; 0.00020 % in tap water) was 0. For the same compound, the Cooling intensity ([3]; 0.00039 % in tap water) was 1, the Cooling intensity ([3]; 0.00078 % in tap water) was 2 and the Cooling intensity ([3]; 0.00156 % in tap water) was 3. For the same compound, the Cooling intensity ([3]; 0.00313 % in tap water) was 5 and the Cooling intensity ([3]; 0.00625 % in tap water) was 5.

Work on `CC1=C(N2CCCC2)C(=O)C(C)C1` (stereo not drawn) [3,5-DMPC, 3,5-Dimethyl-2-(1-pyrrolidinyl)-2-cyclopenten-1-one] yielded a Cooling threshold (trained panelists) of 33 to 54 mg/kg.

With `CCN(CC)C1=CCC(C)C1=O` (stereo not drawn) [5-MdeaC, 5-Methyl-2-diethylamino-2-cyclopenten-1-one] the Cooling threshold (trained panelists) was 12 to 20 mg/kg.

For `COC(=O)C1CCCN1C1=CCC(C)C1=O` (stereo not drawn) [5-MMeproC, 5-Methyl-2-(2-methoxycarbonyl-1-pyrrolidinyl)-2-cyclopentene-1-one], the Cooling threshold (trained panelists) was 112 to 188 mg/kg.

`CC1CCC=C(N2CCCC2)C1=O` (stereo not drawn) [6-MPCH, 6-Methyl-2-(1-pyrrolidinyl)-2-cyclohexen-1-one] showed a Cooling threshold (trained panelists) of 27 to 45 mg/kg.

For `CC1=C(N2CCCC2)C(=O)CC1` [3-MPC, 3-Methyl-2-(1-pyrrolidinyl)-2-cyclopenten-1-one], the Cooling threshold (trained panelists) was 29 to 44 mg/kg and the “Cooling effect [mg/100 g chocolate]” value [2] was 38-63 mg/100 g chocolate.

With `CC1=C(N2CCCC2)C(=O)CO1` [MPF, 5-Methyl-4-(1-pyrrolidinyl)-3(2H)-furanone] the Cooling threshold (trained panelists) was 1.5 to 3.0 mg/kg, the “Cooling effect [mg/100 g chocolate]” value [2] was 0.8-1.5 mg/100 g chocolate and the “Flavor: cooling effect” value ([1]; 400 mg/L in Vittel mineral water) was “Pronounced cooling effect”. The cooling effect (mouth cavity; 1000 mg/L in orange juice) was “pronounced cooling effect”, the “cooling effect in the mouth” value (mouth; 100 mg added to syrup of 100 g sugar) was “pronounced cooling effect” and the Cooling intensity ([3]; 0.00020 % in tap water) was 0. It also gave a Cooling intensity ([3]; 0.00039 % in tap water) of 0, a Cooling intensity ([3]; 0.00078 % in tap water) of 0 and a Cooling intensity ([3]; 0.00156 % in tap water) of 0. For the same compound, the Cooling intensity ([3]; 0.00313 % in tap water) was 0, the Cooling intensity ([3]; 0.00625 % in tap water) was 0 and the Cooling intensity ([3]; 0.0125 % in tap water) was 0. The Cooling intensity ([3]; 0.025 % in tap water) was 0, the Cooling intensity ([3]; 0.05 % in tap water) was 1 and the Cooling intensity ([3]; 0.1 % in tap water) was 2. It also gave a Cooling intensity ([3]; 0.2 % in tap water) of 4, a Cooling intensity ([3]; 0.5 % in tap water) of 5 and a Cooling intensity ([3]; 1.0 % in tap water) of 5.
